In assay [1] the target is Aldo-keto reductase family 1 member B1 (Rattus norvegicus) (UniProt P07943). The experiment in a line: Compound was tested for inhibition of crude aldose reductase obtained from rat lens, at the concentration of 100 uM.
The target of assay [2] is Aldo-keto reductase family 1 member B1 (Rattus norvegicus, UniProt P07943). Description: Inhibition of crude aldose reductase of rat lens.
The target in assay [3] is Aldo-keto reductase family 1 member B1 (Rattus norvegicus) (UniProt P07943). The experiment in a line: Compound was tested for 50% inhibition of crude aldose reductase obtained from rat lens.
The target is the same in assay [4]. Description: Compound was tested for inhibition of crude aldose reductase obtained from rat lens, at the concentration of 100 uM; Inactive.

Among the data in ChEMBL document CHEMBL1123244, “Synthesis and aldose reductase inhibitory activity of substituted 2-oxoquinoline-1-acetic acid derivatives” (J Med Chem, 1986) are inhibition and IC50 values, retold here.

Molecules are shown by their SMILES. The source made the active and inactive calls. No cut-off for these calls is given here.

With `COc1ccc2nc(O)ccc2c1`, the inhibition in assay [1] came out at 25.8%.
On the same count and under the same terms, for `Cc1cc(=O)[nH]c2ccccc12` the value was 24%.
For the compound `O=C(O)CN1C(=O)c2cccc3cccc(c23)C1=O` [ALRESTATIN], the IC50 in assay [2] is 1.5 µM.
In the case of `CC(=O)Oc1cccc2ccc(O)nc12`, the inhibition in assay [1] was found to be 9.5%.
In the case of `O=C(O)Cn1c(=O)ccc2cccc(O)c21`, in assay [2], half-maximal inhibition (IC50) required 3.3 µM.
`O=C(O)Cn1ccccc1=O`: the inhibition in assay [3] is 33%.
Take `Cc1cc(=O)n(C)c2ccccc12`: the inhibition in assay [1] came to 42%.
Turning to `COc1ccc2c(ccc(=O)n2C(C)C(=O)O)c1` (stereo unspecified), in assay [2], the IC50 is 590 µM.
Turning to `CCOC(=O)Cn1c(=O)cc(C)c2ccccc21`, in assay [4], the inhibition result is “inactive”.
In the case of `CC(C(=O)O)n1c(=O)ccc2cccc(O)c21` (stereo unspecified), in assay [2], half-maximal inhibition (IC50) was put at 33 µM.
Same read-out and setting: for `Cc1cc(=O)n(CC(=O)O)c2ccc([N+](=O)[O-])cc12` the value was 0.45 µM; for `Cc1cc(=O)n(CC(=O)O)c2ccccc12`, 6 µM.
Same read-out and setting: for `Cc1cc(=O)n(CCC(=O)O)c2ccccc12` the value was 110 µM.
Take `O=C(O)Cn1c(=O)ccc2cc(O)ccc21`: in assay [2], the IC50 turned out to be 2.4 µM. Compared with the last compound, the IC50 is about 46-fold lower.
Still for that read-out and setting: as for `Cc1cc(=O)n(C(C)C(=O)O)c2ccccc12` (stereo unspecified), the figure is 470 µM.
Still for that read-out and setting: for `COc1ccc2c(ccc(=O)n2CC(=O)O)c1` the value was 0.91 µM.

Usually inhibition stands for the percentage by which the read-out fell short of the control. What is called IC50 is the concentration that gives 50% inhibition. High values mean weaker potency, low ones greater potency.
